# Source: paper PMC11020070, “Discovery of Protease-Activated Receptor 4 (PAR4)-Tethered Ligand Antagonists Using Ultralarge Virtual Screening” (ACS Pharmacology & Translational Science, 2024)
# Where two headings read alike, the source gives them in different places.
# What was measured:
# PAR4 = target: T1, PAR4 (Homo sapiens, UniProt Q96RI0); test: PAR4 component of α-thrombin activation (α-thrombin + vorapaxar) in human platelets; type: cell-based; design: endogenous in cells; host or cells: platelets; conditions: for IC50: α-thrombin + vorapaxar, read-out: PAR4 IC50 (Figure 6D)
# T1 sequence (Q96RI0 18-385): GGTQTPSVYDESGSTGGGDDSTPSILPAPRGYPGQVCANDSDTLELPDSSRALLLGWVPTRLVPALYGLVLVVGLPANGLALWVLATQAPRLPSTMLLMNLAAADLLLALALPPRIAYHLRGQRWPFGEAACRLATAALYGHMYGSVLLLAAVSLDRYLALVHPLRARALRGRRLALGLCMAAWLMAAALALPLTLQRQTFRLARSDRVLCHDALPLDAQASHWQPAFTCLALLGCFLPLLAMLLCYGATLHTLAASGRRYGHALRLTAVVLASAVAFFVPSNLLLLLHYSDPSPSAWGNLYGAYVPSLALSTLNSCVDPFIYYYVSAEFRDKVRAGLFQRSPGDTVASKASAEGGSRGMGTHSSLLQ
# Experimental: Figure 5 (A) Off-target controls: % of vehicle control for γ-thrombin (100 nM), PAR4 component of α-thrombin (5 nM α-thrombin +1 μM vorapaxar), PAR4 agonist peptide 200 μM AYPGKF, 200 μM PAR1 agonist peptide SFLLRN, and GPVI agonist convulxin 3.16 nM.
# Figure 6 (A) Distribution of IC50 values for the inhibition of human PAR4 vs mouse PAR4. Red indicates the 2 compounds highlighted in panels (B–D). (B) Structures of exemplar compounds. (C) Concentration–response curves for human vs mouse PAR4. (D) Concentration–response curves for the inhibition of pharmacologically defined α-thrombin components for PAR1 (α-thrombin + BMS-3) vs PAR4 (α-thrombin + vorapaxar).
# α-thrombin activates both PAR1 and PAR4, and the individual PAR1 or PAR4 component can be isolated pharmacologically. […] With 20 substitutions between PAR1 and PAR4 within 5 Å of the predicted 31 binding site, the basis for these selectivity differences is not known (Figure S4). As we continue to probe for a selective PAR4 antagonist, mutagenesis of individual residues will be conducted.
# Compounds were screened for inhibition activity against human PAR4 using 100 nM γ-thrombin or 200 μM PAR4-AP in a single-point assay (10 μM test compound). Dose–response curves were conducted for active compounds. Active compounds were also assessed at a single concentration of 10 μM against other agonists, including the PAR4 component of α-thrombin (5 nM α-thrombin +1 μM vorapaxar), the PAR1 agonist peptide (20 μM SFFLRN), and the GPVI receptor agonist convulxin (3 nM).
# [1] = Plasma protein binding, human plasma; type: in vitro ADME; conditions: pH 7.4, read-out: human PPB fu
# mouse PAR4 = target: T2, mouse PAR4 (Mus musculus, UniProt O88634); test: Mouse platelet activity assay, flow cytometry, γ-thrombin activation; type: cell-based
# T2 construct: washed mouse platelets were prepared by collecting cardiac puncture blood; endogenous in cells; host or cells: washed mouse platelets (cardiac puncture blood)
# T2 sequence (O88634 17-396): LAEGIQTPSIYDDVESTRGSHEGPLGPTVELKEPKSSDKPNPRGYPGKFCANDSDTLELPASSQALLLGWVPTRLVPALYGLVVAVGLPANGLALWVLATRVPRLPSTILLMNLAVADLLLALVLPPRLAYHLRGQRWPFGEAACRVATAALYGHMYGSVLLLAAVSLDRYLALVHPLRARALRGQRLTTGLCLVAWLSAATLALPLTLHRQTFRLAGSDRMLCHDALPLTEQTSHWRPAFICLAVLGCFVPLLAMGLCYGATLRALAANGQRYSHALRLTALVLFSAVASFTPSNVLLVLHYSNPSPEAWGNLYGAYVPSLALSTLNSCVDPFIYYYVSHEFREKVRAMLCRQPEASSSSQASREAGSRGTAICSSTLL
# Experimental: For mouse PAR4 activity, washed mouse platelets were prepared by collecting cardiac puncture blood with 200 μL of 20 U/mL heparin. Following centrifugation at 1000 rpm for 15 min, plasma and buffy coat were collected into a separate tube and spiked with apyrase and PGE1. After centrifuging at 1000 rpm for 8 min, the platelet-rich plasma was transferred to another tube and centrifuged at 2200 rpm for 10 min to pellet the platelets. Platelets were resuspended in TBB + apyrase + PGE1. Platelets were counted and diluted in TBB to a final concentration of 2 × 10^7 platelets/mL. 50 μL of platelets were aliquoted to each tube preincubated with 50 μL of TBB with antibodies for mouse GPIIbIIIa and P-selectin (Emfret, Eibelstadt Germany) and either test compound antagonist or DMSO control. Platelets were activated with 316 nM γ-thrombin for 30 min. Samples were then fixed with 100 μL of 2% paraformaldehyde for 20 min and diluted with 300 μL of PBS. Flow cytometry counts are measured as for human platelets on a three-laser BD LSRFortessa (Becton Dickinson) and analyzed with FloJo software.
# [2] = Table 4 summary, read-out: mouse PAR4 IC50
# [3] = mouse platelets, 316 nM γ-thrombin, GPIIbIIIa (JonA), read-out: Mouse Platelets JonA IC50
# [4] = mouse platelets, 316 nM γ-thrombin, P-selectin, read-out: Mouse Platelets P-Sel IC50
fraction unbound at 4 h [1],IC50 (mouse PAR4; [2]),IC50 (mouse PAR4; [3]),IC50 (mouse PAR4; [4]),IC50 (PAR4),SMILES,"inhibition of PAR4 component of α-thrombin activation (PAR4; 10 μM compound, 5 nM α-thrombin + 1 μM vorapaxar)"
0.052,–,401 nM,370 nM,149 nM,Cn1nc(C(=O)Nc2n[nH]c(-c3c(F)cccc3F)n2)cc1C1CC1 [Compound 12],–
0.015,367 nM,367 nM,330 nM,163 nM,O=C(Nc1n[nH]c(-c2ccc(F)cc2F)n1)c1nn(-c2ccccc2)c2c1CCCC2 [Compound 31],–

# The remaining lines, values behind:
SMILES,fraction unbound at 4 h [1],IC50 (mouse PAR4; [2]),IC50 (mouse PAR4; [3]),IC50 (mouse PAR4; [4]),IC50 (PAR4),"inhibition of PAR4 component of α-thrombin activation (PAR4; 10 μM compound, 5 nM α-thrombin + 1 μM vorapaxar)"
Cc1nc(NC(=O)c2cc(-c3ccccc3)n(-c3ccccc3)n2)n[nH]1 [Compound 7],–,–,–,–,–,did inhibit
Cc1cc(C(=O)Nc2n[nH]c(OC(F)F)n2)nn1-c1ccccc1 [Compound 9],0.036,1450 nM,1450 nM,1450 nM,–,–
O=C(Nc1nc[nH]n1)c1nn(-c2ccccc2)c2c1CCC2 [Compound 17],0.029,3330 nM,3330 nM,4020 nM,–,–
COc1cccc(-c2nc(NC(=O)c3nn(-c4ccccc4)c4c3CCCC4)n[nH]2)c1 [Compound 32],0.007,269 nM,269 nM,298 nM,–,–
